Test [1] addresses human osteoblastic (TE85) tyrosinephosphate phosphatase. The format is biochemical. Particulars: for pIC50: read-out: TF85 IC50.
For test [2], the system named is human TE85 osteoblast-line cells. As to the kind of experiment: Osteoblast Cell Proliferation (3H-thymidine incorporation). The format is cell-based. Particulars: 24 h, read-out: Osteoblast Cell Prolif % X Control; for activity at 100 µM: concentration of drug 100 μM. From the text:
The action of select compounds to stimulate osteoblast growth can be measured in culture by assuming the rate of DNA synthesis is proportional to the rate of ^3 H-thymidine incorporation into DNA. Only cells undergoing mitosis will synthesize new DNA and thus only these cells will incorporate the radiolabelled DNA-specific thymidine. The stimulation of the proliferation and differentiation of bone-forming cells, osteoblasts, is a prerequisite for an increase in bone formation and bone mass. The ability of agents to increase osteoblast proliferation and differentiation can be predicted (reference) by their action on cultured osteoblast-line cells in vitro. In this test human TE85 osteoblast-line cells (100,000) were plated on 24 well plates in DMEM containing 5% fetal calf serum for 48 hours. After removal of the media, 0.3 mL of serum-free media containing 0.25% BSA was added to each well. After 24 hours, the treatments were added to the conditioned media for an additional 24 hours. Tritiated thymidine (0.6uCi) was added for the last two hours. After rinsing the cells with Dulbeccos PBS, the cells were released from the plate by trypsinizing with 0.25 mL trypsin (0.25%) for 5-10 min. An equal aliquot of 25% TCA was added and the cell lysate allowd to stand for 15 minutes at 4° C. The lysate was centrifuged for 10 minutes, the supernatant removed, and the pellet washed with 0.2 mL of cold 80% ethanol. After a second centrifugation, the pellet was suspended in 0.1 mL 0.1% Triton X-1 00. The pellet was then sonicated to remove all of the material from the sides of the tube. This material was placed into a scintillation vial. An additional 0.08 mL of the Triton was used to rinse the tube before placing into the vial. These mbined samples were quantitated by scintillation spectrometry.
A general note: Incorporation of labelled thymidine or its analogues reports DNA synthesis.

Test [3] has as its target T1, CD45 (Homo sapiens, UniProt P08575).
T1 sequence (P08575 26-1306): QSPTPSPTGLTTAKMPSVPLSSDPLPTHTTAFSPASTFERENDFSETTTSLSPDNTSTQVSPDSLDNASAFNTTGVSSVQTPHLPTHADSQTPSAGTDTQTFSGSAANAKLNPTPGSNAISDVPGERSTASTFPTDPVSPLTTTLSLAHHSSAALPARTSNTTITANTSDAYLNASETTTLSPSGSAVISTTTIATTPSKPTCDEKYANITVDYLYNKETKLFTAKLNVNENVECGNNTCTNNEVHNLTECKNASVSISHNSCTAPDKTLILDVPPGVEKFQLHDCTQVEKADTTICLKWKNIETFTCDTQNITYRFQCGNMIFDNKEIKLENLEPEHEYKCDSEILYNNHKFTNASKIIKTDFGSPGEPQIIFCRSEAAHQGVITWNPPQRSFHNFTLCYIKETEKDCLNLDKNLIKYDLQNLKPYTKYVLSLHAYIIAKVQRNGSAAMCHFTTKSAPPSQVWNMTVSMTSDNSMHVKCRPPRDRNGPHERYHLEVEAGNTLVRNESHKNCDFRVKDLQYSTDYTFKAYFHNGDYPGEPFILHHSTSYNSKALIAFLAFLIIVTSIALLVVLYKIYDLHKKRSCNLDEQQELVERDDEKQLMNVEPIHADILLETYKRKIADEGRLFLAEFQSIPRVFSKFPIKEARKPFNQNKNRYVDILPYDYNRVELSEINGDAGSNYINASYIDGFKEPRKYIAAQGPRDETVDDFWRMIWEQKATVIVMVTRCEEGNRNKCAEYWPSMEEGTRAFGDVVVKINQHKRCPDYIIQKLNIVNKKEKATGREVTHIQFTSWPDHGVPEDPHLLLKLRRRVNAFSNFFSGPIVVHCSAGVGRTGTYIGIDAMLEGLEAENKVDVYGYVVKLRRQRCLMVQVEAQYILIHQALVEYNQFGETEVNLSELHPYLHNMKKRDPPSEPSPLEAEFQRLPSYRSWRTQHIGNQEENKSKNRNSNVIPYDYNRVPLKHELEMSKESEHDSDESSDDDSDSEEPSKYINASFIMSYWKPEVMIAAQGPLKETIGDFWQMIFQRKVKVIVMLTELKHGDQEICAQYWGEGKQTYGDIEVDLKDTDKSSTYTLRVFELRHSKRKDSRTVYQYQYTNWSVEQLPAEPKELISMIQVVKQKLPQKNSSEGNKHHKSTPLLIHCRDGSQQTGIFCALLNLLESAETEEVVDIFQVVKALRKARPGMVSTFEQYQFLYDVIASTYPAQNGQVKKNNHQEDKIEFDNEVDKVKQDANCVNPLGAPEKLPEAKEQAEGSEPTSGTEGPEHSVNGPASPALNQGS
Kind of test: biochemical.

Test [4] addresses T1, CD45. Conditions: read-out: IC50 (CD45).

Molecules are shown by their SMILES. pIC50: −log10 of the molar value. Where two headings read alike, the source gives them in different places.

A word on the pIC50: it is the IC50 on a negative log10 scale, so that one unit is a factor of ten.

As to `O=[N+]([O-])c1ccc(SCCCc2ccccc2)c(C(O)P(=O)(O)O)c1` (centres unmarked) [Example 34, [2-(3-Phenylpropyl)thio-5-nitro]phenylhydroxy-methyl phosphonic acid], the pIC50 in test [1] was 6.35. In addition, the activity at 100 µM in test [2] is 127%.

With `O=[N+]([O-])c1cc(C(O)P(=O)(O)O)ccc1Sc1ccc(Br)cc1` (centres unmarked) [Example 54, [3-Nitro-4-(4-bromophenylthio)]phenylhydroxymethylphosphonic acid], in test [1] (te85 cell extract, 15 min), the “TF85 % @ 30 μM” value is given as 75%.

As for `O=C(c1cc([N+](=O)[O-])ccc1Cl)P(=O)(O)O` [Example 58, (2-Chloro-5-nitro)phenyloxomethylphosphonic acid], the pIC50 in test [1] was 5.30.

Turning to `O=[N+]([O-])c1ccc(SCc2ccccc2)c(C(O)P(=O)(O)O)c1` (centres unmarked) [Example 28, (2-Benzylthio-5-nitro)phenylhydroxymethylphosphonic acid], the results for the pIC50 in test [1] and in test [3] were 5.20 and 5.22, respectively. Also, in test [2], the activity at 100 µM came out at 111%.

In the case of `O=Cc1ccc(OC(=O)c2ccccc2)c([N+](=O)[O-])c1` [Example 50, 3-Nitro-4-benzoyloxybenzaldehyde], the pIC50 in test [1] is 4.77.

As for `Cc1ccccc1CSc1ccc([N+](=O)[O-])cc1C(O)P(=O)(O)O` (centres unmarked) [Example 29, [2-(2-Methyl)benzylthio-5-nitro]phenylhydroxymethyl phosphonic acid], the pIC50 in test [1] was 5.03.

As to `O=[N+]([O-])c1ccc(Cl)c(C(O)P(=O)(O)O)c1` (centres unmarked) [Example 2, (2-Chloro-5-nitro)phenylhydroxymethylphosphonic acid], the pIC50 is 4.70 in test [4] (enzyme from Jurkat cell (JEG-6) membranes, pH 6.0, 90 minutes at 37° C.) and 4.46 in test [1].

For the molecule `Cc1ccc(Oc2ccc([N+](=O)[O-])cc2C(O)P(=O)(O)O)cc1` (centres unmarked) [Example 14, [2-(4-Methyl)phenoxy-5-nitro]phenylhydroxymethyl phosphonic acid], the “TF85 % @ 300 μM” value in test [1] (te85 cell extract, 15 min) stood at 90%.

As to `O=[N+]([O-])c1ccc(O)c(C(O)P(=O)(O)O)c1` (centres unmarked) [Example 7, (2-Hydroxy-5-nitro)phenylhydroxymethylphosphonic acid], in test [1], the pIC50 is 4.52.

Consider `Cc1ccc(CCSc2ccc([N+](=O)[O-])cc2C(O)P(=O)(O)O)cc1` (centres unmarked) [Example 32, [2-(4-Methylphenylethylthio)-5-nitro]phenyl-hydroxymethyl phosphonic acid], for which the “TF85 % @ 300 μM” value in test [1] (te85 cell extract, 15 min) amounted to 73%.

For the molecule `O=[N+]([O-])c1ccc(C(O)P(=O)(O)O)s1` (centres unmarked) [Example 43, 5-Nitro-2-thiophenehydroxymethylphosphonic acid], the pIC50 in test [1] is 6.00.

`Cc1cccc(CSc2ccc([N+](=O)[O-])cc2C(O)P(=O)(O)O)c1` (centres unmarked) [Example 30, [2-(3-Methyl)benzylthio-5-nitro]phenylhydroxymethyl phosphonic acid]: the pIC50 in test [1] is 5.36.

As for `O=[N+]([O-])c1ccc(Sc2cccc(C(F)(F)F)c2)c(C(O)P(=O)(O)O)c1` (centres unmarked) [Example 20, [2-(3-Trifluoromethyl)phenylthio-5-nitro]phenylhydroxymethylphosphonic acid], the pIC50 in test [1] is 5.62. In addition, the activity at 100 µM in test [2] came out at 139%.

On to `O=[N+]([O-])c1ccc(Sc2ccccn2)c(C(O)P(=O)(O)O)c1` (centres unmarked) [Example 22, [2-(2-Pyridyl)thio-5-nitro]phenylhydroxymethyl-phosphonic acid], for which the results for the pIC50 in test [4] (pH 6) and in test [1] were 6.00 and 4.85, respectively.

Regarding `Cc1ccc(C(O)P(=O)(O)O)cc1[N+](=O)[O-]` (centres unmarked) [Example 52, (3-Nitro-4-methyl)phenylhydroxymethyphosphonic acid], the pIC50 in test [1] is 4.52.

With `O=[N+]([O-])c1cc(C(O)P(=O)(O)O)ccc1OCc1ccc(Cl)c(Cl)c1` (centres unmarked) [Example 56, [3-Nitro-4-(3,4-dichlorobenzyloxy)]phenylhydroxymethylphosphonic acid], the pIC50 in test [1] is 4.52.

Turning to `O=[N+]([O-])c1ccc(Sc2ccccc2)c(C(O)P(=O)(O)O)c1` (centres unmarked) [Example 17, (2-Phenylthio-5-nitro)phenylhydroxymethylphosphonic acid], the pIC50 in test [1] is 4.55. Further, the activity at 100 µM in test [2] worked out at 119%.

Turning to `O=[N+]([O-])c1ccc(SC2CCCCC2)c(C(O)P(=O)(O)O)c1` (centres unmarked) [Example 26, (2-Cyclohexylthio-5-nitro)phenylhydroxymethylphosphonic acid], the pIC50 was 5.92 in test [4] (pH 6) and 5.24 in test [1]. In addition, the activity at 100 µM in test [2] came out at 138%.

Consider `Cc1ccc(CSc2ccc([N+](=O)[O-])cc2C(O)P(=O)(O)O)cc1` (centres unmarked) [Example 31, [2-(4-Methyl)benzylthio-5-nitro]phenylhydroxymethylphosphonic acid], for which the pIC50 in test [1] was 6.09. The activity at 30 µM in test [2] (concentration of drug 30 μM) turned out to be 159%.

Consider `COc1ccccc1Sc1ccc([N+](=O)[O-])cc1C(O)P(=O)(O)O` (centres unmarked) [Example 24, [2-(2-Methoxyphenylthio)-5-nitro]phenylhydroxymethylphosphonic acid], for which, in test [1], the pIC50 was 4.64.

For `CCCCCCSc1ccc([N+](=O)[O-])cc1C(O)P(=O)(O)O` (centres unmarked) [Example 38, [2-(1-N-hexanyl)thio-5-nitro]phenylhydroxy-methylphosphonic acid], the pIC50 in test [1] is 6.00.

For `O=[N+]([O-])c1ccc(Sc2ccc(Cl)cc2)c(C(O)P(=O)(O)O)c1` (centres unmarked) [Example 19, [2-(4-Chlorophenylthio)-5-nitro]phenylhydroxymethylphosphonic acid], the pIC50 in test [4] (pH 6) is 4.55. In addition, in test [1] (te85 cell extract, 15 min), the “TF85 % @ 300 μM” value is listed as 95%.

`CCCCCCCCCCSc1ccc([N+](=O)[O-])cc1C(O)P(=O)(O)O` (centres unmarked) [Example 36, [2-(1-N-decyl)thio-5-nitro]phenylhydroxymethylphosphonic acid]: the pIC50 in test [1] is 6.00.

For the molecule `O=[N+]([O-])c1ccc(Oc2cccnc2)c(C(O)P(=O)(O)O)c1` (centres unmarked) [Example 15, [2-(3-Pyridyl)oxy-5-nitro]phenylhydroxymethyl-phosphonic acid], the negative-log IC50 (pIC50) in test [1] was 4.48.

Turning to `O=[N+]([O-])c1ccc(-c2ccccc2)c(C(O)P(=O)(O)O)c1` (centres unmarked) [Example 59, (2-Phenyl-5-nitro) phenylhydroxymethylphosphonic acid], in test [1], the pIC50 was 5.00.

For the molecule `O=[N+]([O-])c1ccc(Oc2ccccc2)c(C(O)P(=O)(O)O)c1` (centres unmarked) [Example 12, (2-Phenoxy-5-nitro)phenylhydroxymethylphosphonic acid], the pIC50 is 4.74 in test [1] and 4.85 in test [3]. Also, in test [2], the activity at 100 µM came out at 112%.

Turning to `O=[N+]([O-])c1cc(C(O)P(=O)(O)O)cs1` (centres unmarked) [Example 40, 2-Nitro-4-thienylhydroxymethylphosphosphonic acid], in test [4] (pH 6), the pIC50 is 4.42. Besides, the “TF85 % @ 300 μM” value in test [1] (te85 cell extract, 15 min) is on record as 79%.
